Biological target: Cathepsin B (Homo sapiens, UniProt P07858)
Assay: In vitro inhibitory activity against Cathepsin B

SMILES	IC50
NC(=O)c1cn(-c2ccc(O)cc2Cl)c2cc(-c3ccncc3)ccc2c1=O	25 µM
NC(=O)c1cn(-c2ccc(O)cc2)c2cc(-c3ccncc3)ccc2c1=O	32 µM

Biological target: T1, Calpain-1 catalytic subunit (Homo sapiens, UniProt P07384)
T1 sequence (P07384 whole entry): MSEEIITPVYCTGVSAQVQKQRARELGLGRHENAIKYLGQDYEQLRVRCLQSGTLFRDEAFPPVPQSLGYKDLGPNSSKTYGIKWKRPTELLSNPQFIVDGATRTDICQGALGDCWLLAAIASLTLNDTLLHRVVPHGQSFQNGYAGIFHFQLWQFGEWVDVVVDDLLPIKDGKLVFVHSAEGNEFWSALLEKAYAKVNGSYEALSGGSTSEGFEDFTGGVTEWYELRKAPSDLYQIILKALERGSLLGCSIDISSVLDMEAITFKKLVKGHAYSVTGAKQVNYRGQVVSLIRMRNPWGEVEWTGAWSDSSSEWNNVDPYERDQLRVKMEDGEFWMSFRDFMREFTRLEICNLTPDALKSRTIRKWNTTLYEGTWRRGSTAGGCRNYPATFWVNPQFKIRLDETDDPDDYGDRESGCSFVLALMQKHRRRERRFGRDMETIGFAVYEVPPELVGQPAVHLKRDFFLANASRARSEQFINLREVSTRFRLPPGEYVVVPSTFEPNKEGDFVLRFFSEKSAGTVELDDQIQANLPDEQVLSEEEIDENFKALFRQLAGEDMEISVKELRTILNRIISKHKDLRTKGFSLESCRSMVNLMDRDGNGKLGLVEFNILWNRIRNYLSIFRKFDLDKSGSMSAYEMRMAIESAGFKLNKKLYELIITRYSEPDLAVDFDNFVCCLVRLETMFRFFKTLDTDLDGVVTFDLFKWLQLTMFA
Assay: In vitro inhibitory activity against human erythrocyte Calpain 1

SMILES	IC50
NC(=O)c1cn(-c2ccc(O)cc2Cl)c2cc(-c3ccncc3)ccc2c1=O	0.5 µM
NC(=O)c1cn(-c2ccc(O)cc2Cl)c2cc(-c3ccncc3Cl)ccc2c1=O	2 µM
NC(=O)c1cn(-c2ccc(O)cc2Cl)c2cc(-c3ccccn3)ccc2c1=O	30 µM
NC(=O)c1cn(-c2ccc(O)cc2F)c2cc(-c3ccncc3)ccc2c1=O	7 µM
NC(=O)c1cn(-c2ccc(O)cc2Cl)c2cc(-c3ccnc(F)c3)ccc2c1=O	30 µM
Cc1cc(O)ccc1-n1cc(C(N)=O)c(=O)c2ccc(-c3ccncc3)cc21	0.5 µM
O=C(O)c1cn(-c2ccc(O)cc2)c2cc(-c3ccncc3)ccc2c1=O	20 µM
NC(=O)c1cn(-c2ccc(O)cc2Cl)c2cc(-c3ccoc3)ccc2c1=O	2 µM
CC(=O)N[C@@H](CC(C)C)C(=O)N[C@@H](CC(C)C)C(=O)N[C@H](C=O)CCCNC(=N)N [LEUPEPTIN]	0.3 µM
NC(=O)c1cn(-c2ccc(O)cc2Cl)c2cc(-c3cccnn3)ccc2c1=O	2 µM
NC(=O)c1cn(-c2ccc(O)cc2Cl)c2cc(-n3cccn3)ccc2c1=O	0.6 µM
NC(=O)c1cn(-c2ccc(O)cc2C(F)(F)F)c2cc(-c3ccncc3)ccc2c1=O	20 µM
NC(=O)c1cn(-c2ccc(O)cc2Cl)c2cc(-c3cccnc3)ccc2c1=O	10 µM

Biological target: Procathepsin L (Homo sapiens, UniProt P07711)
Assay: In vitro inhibitory activity against cathepsin L

Procathepsin L, sequence (P07711 whole entry): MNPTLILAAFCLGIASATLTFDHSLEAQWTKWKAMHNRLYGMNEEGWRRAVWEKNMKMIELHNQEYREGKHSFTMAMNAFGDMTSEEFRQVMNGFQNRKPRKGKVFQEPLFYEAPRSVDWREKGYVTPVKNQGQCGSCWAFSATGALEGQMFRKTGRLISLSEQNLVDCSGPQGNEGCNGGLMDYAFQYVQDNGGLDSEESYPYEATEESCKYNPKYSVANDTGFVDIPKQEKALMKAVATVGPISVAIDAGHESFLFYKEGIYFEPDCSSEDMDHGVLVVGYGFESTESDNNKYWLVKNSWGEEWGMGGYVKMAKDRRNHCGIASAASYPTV

SMILES	IC50
NC(=O)c1cn(-c2ccc(O)cc2Cl)c2cc(-c3ccncc3)ccc2c1=O	22 µM
NC(=O)c1cn(-c2ccc(O)cc2)c2cc(-c3ccncc3)ccc2c1=O	37 µM

Biological target: T2, Calpain-1 catalytic subunit (Homo sapiens) (UniProt P07384)
T2 sequence (whole entry): T1 sequence (P07384 whole entry)
Assay: In vitro inhibitory activity against human erythrocyte Calpain 1 at a concentration of 50 uM

SMILES	inhibition
O=C(NO)c1cn(-c2ccc(O)cc2)c2cc(-c3ccncc3)ccc2c1=O	< 10%
O=C(NCCO)c1cn(-c2ccc(O)cc2)c2cc(-c3ccncc3)ccc2c1=O	< 10%
Cc1cc(-n2cc(C(N)=O)c(=O)c3ccc(-c4ccncc4)cc32)cc(C)c1O	< 10%
Cc1cncc(C)c1-c1ccc2c(=O)c(C(N)=O)cn(-c3ccc(O)cc3Cl)c2c1	< 10%
CNC(=O)c1cn(-c2ccc(O)cc2)c2cc(-c3ccncc3)ccc2c1=O	< 10%
CN(C)C(=O)c1cn(-c2ccc(O)cc2)c2cc(-c3ccncc3)ccc2c1=O	< 10%
NC(=O)c1cn(-c2ccc(O)cc2)c2cc(-c3ccccc3)ccc2c1=O	< 10%
NC(=O)c1cn(-c2ccc(O)cc2)c2ccccc2c1=O	< 10%
